Several values for one entry are separate records, joined by “and”; a condition that tells them apart may be missing. Identical values can stand only once.
Assays:
[1] = cited from earlier work
[2] = Gemcitabine plasma pharmacokinetics in Slc28a1+/+ and Slc28a1-/- mice
[3] = dFdU in plasma, KO mice, iv gemcitabine 50mg/kg, per mouse
[4] = dFdU in plasma, WT mice, iv gemcitabine 50mg/kg, per mouse

O=c1ccn([C@@H]2O[C@H](CO)[C@@H](O)C2(F)F)c(=O)[nH]1 [dFdU, 2′,2′-difluorodeoxyuridine]
half-life [1]: ~ 26 h | AUC (Last) ([2]; Slc28a1-/- mice, plasma, single i.v. dFdC 50 mg/kg): 1453.8 ± 31.9 ng x min/mL | AUCINF_D_obs [2, 3]: 145.293 kg·ng·min/mL/mg and 247.451 kg·ng·min/mL/mg and 151.268 kg·ng·min/mL/mg | AUCINF_D_pred [2, 3]: 145.176 kg·ng·min/mL/mg and 248.596 kg·ng·min/mL/mg and 151.889 kg·ng·min/mL/mg | AUCINF_obs [2, 3]: 12372.5 ng·min/mL and 7563.4 ng·min/mL | AUCINF_pred [2, 3]: 12429.8 ng·min/mL and 7594.45 ng·min/mL | AUC_%Back_Ext_obs [2, 3]: 27.8053% and 16.048% and 18.9747% | AUC_%Back_Ext_pred [2, 3]: 27.8277% and 15.9741% and 18.8972% | AUC_%Extrap_obs [2, 3]: 3.511% and 11.2661% and 5.257% | AUC_%Extrap_pred [2, 3]: 3.433% and 11.6749% and 5.644% | AUCall [2, 3]: 7482.64 ng·min/mL and 12659.7 ng·min/mL and 8852.13 ng·min/mL and 5047.42 ng·min/mL and 7806.56 ng·min/mL and 6947.11 ng·min/mL | AUClast [2, 3]: 7009.6 ng·min/mL and 10978.6 ng·min/mL and 5995.89 ng·min/mL and 3337.67 ng·min/mL and 7165.79 ng·min/mL and 6415.86 ng·min/mL | AUClast_D [2, 3]: 140.192 kg·ng·min/mL/mg and 219.572 kg·ng·min/mL/mg and 119.918 kg·ng·min/mL/mg and 66.7534 kg·ng·min/mL/mg and 143.316 kg·ng·min/mL/mg and 128.317 kg·ng·min/mL/mg | AUMCINF_obs [2, 3]: 73315.1 min*min*ng/mL and 188787 min*min*ng/mL and 94928.9 min*min*ng/mL | AUMCINF_pred [2, 3]: 73092.7 min*min*ng/mL and 191216 min*min*ng/mL and 96149.2 min*min*ng/mL | AUMC_%Extrap_obs [2, 3]: 13.2491% and 31.3337% and 16.4642% | AUMC_%Extrap_pred [2, 3]: 12.9851% and 32.2062% and 17.5245% | AUMClast [2, 3]: 63601.5 min*min*ng/mL and 129633 min*min*ng/mL and 47032.5 min*min*ng/mL and 25446 min*min*ng/mL and 79299.6 min*min*ng/mL and 72737 min*min*ng/mL | Cl_pred [2, 3]: 413.291 L/h/kg and 241.36 L/h/kg and 395.026 L/h/kg | Clast [2, 3]: 31.5362 ng/mL and 112.074 ng/mL and 380.831 ng/mL and 227.966 ng/mL and 42.718 ng/mL and 35.4167 ng/mL | Clast_pred [2, 3]: 30.8142 ng/mL and 116.678 ng/mL and 46.0533 ng/mL | Cmax [2, 3]: 399.844 ng/mL and 516.311 ng/mL and 478.159 ng/mL and 230.143 ng/mL and 315.127 ng/mL and 303.44 ng/mL | Cmax_D [2, 3]: 7.997 kg·ng/mL/mg and 10.3262 kg·ng/mL/mg and 9.563 kg·ng/mL/mg and 4.603 kg·ng/mL/mg and 6.303 kg·ng/mL/mg and 6.069 kg·ng/mL/mg | HL_Lambda_z [2, 3]: 5.606 min and 8.621 min and 6.452 min | Lambda_z [2, 3]: 0.0804 min⁻¹ and 0.1074 min⁻¹ | MRTINF_obs [2, 3]: 15.2585 min and 12.5511 min | MRTINF_pred [2, 3]: 15.3837 min and 12.6605 min | MRTlast [2, 3]: 11.8078 min and 7.844 min and 7.624 min and 11.0664 min and 11.3371 min | Tlast [2, 3]: 30 min and 15 min | Tmax [2, 3]: 5 min and 10 min and 15 min | Vss_obs [2, 3]: 69.4601 L/kg and 61.663 L/kg and 82.9724 L/kg | Vss_pred [2, 3]: 69.3609 L/kg and 61.8825 L/kg and 83.3534 L/kg | Vz_obs [2, 3]: 55.6606 L/kg and 50.262 L/kg and 61.5323 L/kg | Vz_pred [2, 3]: 55.7054 L/kg and 50.0305 L/kg and 61.2807 L/kg | AUCINF_D_obs [2, 4]: 809.741 kg·ng·min/mL/mg and 249.152 kg·ng·min/mL/mg and 172.396 kg·ng·min/mL/mg and 377.161 kg·ng·min/mL/mg | AUCINF_D_pred [2, 4]: 816.693 kg·ng·min/mL/mg and 238.149 kg·ng·min/mL/mg and 171.456 kg·ng·min/mL/mg and 377.935 kg·ng·min/mL/mg | AUCINF_obs [2, 4]: 40487.1 ng·min/mL and 12457.6 ng·min/mL and 8619.8 ng·min/mL and 18858.1 ng·min/mL | AUCINF_pred [2, 4]: 40834.7 ng·min/mL and 11907.4 ng·min/mL and 8572.82 ng·min/mL and 18896.7 ng·min/mL | AUC_%Back_Ext_obs [2, 4]: 5.421% and 15.2704% and 19.786% and 11.9089% | AUC_%Back_Ext_pred [2, 4]: 5.375% and 15.976% and 19.8944% and 11.8845% | AUC_%Extrap_obs [2, 4]: 84.3044% and 33.9106% and 11.4334% and 37.4722% | AUC_%Extrap_pred [2, 4]: 84.438% and 30.857% and 10.948% and 37.6002% | AUCall [2, 4]: 4075.38 ng·min/mL and 9255.63 ng·min/mL and 10796.8 ng·min/mL and 8847.25 ng·min/mL and 15444.5 ng·min/mL and 12682.2 ng·min/mL | AUClast [2, 4]: 2654.78 ng·min/mL and 6354.7 ng·min/mL and 8233.16 ng·min/mL and 7634.27 ng·min/mL and 11791.5 ng·min/mL and 11904.6 ng·min/mL | AUClast_D [2, 4]: 53.0957 kg·ng·min/mL/mg and 127.094 kg·ng·min/mL/mg and 164.663 kg·ng·min/mL/mg and 152.685 kg·ng·min/mL/mg and 235.831 kg·ng·min/mL/mg and 238.093 kg·ng·min/mL/mg | AUMCINF_obs [2, 4]: 3570423 min*min*ng/mL and 327900 min*min*ng/mL and 123838 min*min*ng/mL and 570014 min*min*ng/mL | AUMCINF_pred [2, 4]: 3606313 min*min*ng/mL and 297795 min*min*ng/mL and 121856 min*min*ng/mL and 572297 min*min*ng/mL | AUMC_%Extrap_obs [2, 4]: 98.6995% and 70.4945% and 33.5736% and 73.1636% | AUMC_%Extrap_pred [2, 4]: 98.7124% and 67.5118% and 32.4931% and 73.2706% | AUMClast [2, 4]: 21508.2 min*min*ng/mL and 46433.5 min*min*ng/mL and 96748.4 min*min*ng/mL and 82261.4 min*min*ng/mL and 152972 min*min*ng/mL and 128827 min*min*ng/mL | Cl_pred [2, 4]: 73.467 L/h/kg and 251.944 L/h/kg and 349.943 L/h/kg and 158.758 L/h/kg | Clast [2, 4]: 189.413 ng/mL and 386.792 ng/mL and 170.91 ng/mL and 80.8657 ng/mL and 243.534 ng/mL and 51.8385 ng/mL | Clast_pred [2, 4]: 390.731 ng/mL and 148.651 ng/mL and 77.0106 ng/mL and 244.867 ng/mL | Cmax [2, 4]: 214.033 ng/mL and 433.203 ng/mL and 507.425 ng/mL and 460.142 ng/mL and 479.909 ng/mL and 627.306 ng/mL | Cmax_D [2, 4]: 4.281 kg·ng/mL/mg and 8.664 kg·ng/mL/mg and 10.1485 kg·ng/mL/mg and 9.203 kg·ng/mL/mg and 9.598 kg·ng/mL/mg and 12.5461 kg·ng/mL/mg | HL_Lambda_z [2, 4]: 61.1667 min and 17.1328 min and 8.4476 min and 20.1128 min | Lambda_z [2, 4]: 0.01133 min⁻¹ and 0.04046 min⁻¹ and 0.08205 min⁻¹ and 0.03446 min⁻¹
